From the supplement of paper PMC10307832

Columns and labels:
Test in all cases: relative viability (nuclei count vs DMSO), 5 days (fraction); higher = more cells survive
201T = system: 201T
Outline: (§1)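 Cells from lung cancer lines were seeded into 1536-well plates and, one day later, dosed by pin tool. Treatments were either a single drug or a fixed dose of an anchor drug with five library-drug doses (not always all listed) in √10 steps. After 5 days, nuclei were stained in a one-step fixation (final 0.05% Triton X-100, 1% formaldehyde, 1 ug/ml Hoechst) and counted on 4× images, and relative viability is the treated-to-vehicle nuclei ratio, as the median of duplicate plates.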

ABC-1 = system: ABC-1
Outline: as §1

BEN = system: BEN
Outline: as §1

CAL-12T = system: CAL-12T
Outline: as §1

COR-L 105 = system: COR-L 105
Outline: as §1

EKVX = system: EKVX
Outline: as §1

EMC-BAC-2 = system: EMC-BAC-2
Outline: as §1

HCC-15 = system: HCC-15
Outline: as §1

HCC-44 = system: HCC-44
Outline: as §1

LK-2 = system: LK-2
Outline: as §1

LU99A = system: LU99A
Outline: as §1

NCI-H1563 = system: NCI-H1563
Outline: as §1

NCI-H1651 = system: NCI-H1651
Outline: as §1

NCI-H2023 = system: NCI-H2023
Outline: as §1

NCI-H322M = system: NCI-H322M
Outline: as §1

NCI-H358 = system: NCI-H358
Outline: as §1

NCI-H460 = system: NCI-H460
Outline: as §1

NCI-H520 = system: NCI-H520
Outline: as §1

NCI-H727 = system: NCI-H727
Outline: as §1

NCI-H838 = system: NCI-H838
Outline: as §1

PC-3 [JPC-3] = system: PC-3 [JPC-3]
Outline: as §1

Cc1csc(=NC2CCCCC2)n1/N=C/c1ccc(O)c(O)c1O [MIM1] + C[C@@H](Oc1cc(-c2cnn(C3CCNCC3)c2)cnc1N)c1c(Cl)ccc(F)c1Cl [Crizotinib] (partner 1 µM) showed a relative viability (201T; first compound 0.2 µM) of 1.01, a relative viability (201T; first compound 0.6325 µM) of 1.04 and a relative viability (201T; first compound 2 µM) of 1.04. It also gave a relative viability (201T; first compound 6.325 µM) of 0.81, a relative viability (201T; first compound 20 µM) of 0.823 and a relative viability (ABC-1; first compound 0.2 µM) of 1.08. The relative viability (ABC-1; first compound 0.6325 µM) was 1.22, the relative viability (ABC-1; first compound 2 µM) was 0.846 and the relative viability (ABC-1; first compound 6.325 µM) was 0.286. The relative viability (ABC-1; first compound 20 µM) was 0.226, the relative viability (BEN; first compound 0.2 µM) was 0.893 and the relative viability (BEN; first compound 0.6325 µM) was 0.72. It also gave a relative viability (BEN; first compound 2 µM) of 0.982, a relative viability (BEN; first compound 6.325 µM) of 0.801 and a relative viability (BEN; first compound 20 µM) of 0.317. For the same molecule, the relative viability (CAL-12T; first compound 0.2 µM) was 0.596, the relative viability (CAL-12T; first compound 0.6325 µM) was 0.676 and the relative viability (CAL-12T; first compound 2 µM) was 0.515. The relative viability (CAL-12T; first compound 6.325 µM) was 0.438, the relative viability (CAL-12T; first compound 20 µM) was 0.283 and the relative viability (COR-L 105; first compound 0.2 µM) was 0.893. It also gave a relative viability (COR-L 105; first compound 0.6325 µM) of 0.811, a relative viability (COR-L 105; first compound 2 µM) of 0.612 and a relative viability (COR-L 105; first compound 6.325 µM) of 0.724. It also gave a relative viability (COR-L 105; first compound 20 µM) of 0.759, a relative viability (EKVX; first compound 0.2 µM) of 0.989 and a relative viability (EKVX; first compound 0.6325 µM) of 0.887. It also gave a relative viability (EKVX; first compound 2 µM) of 0.788, a relative viability (EKVX; first compound 6.325 µM) of 0.527 and a relative viability (EKVX; first compound 20 µM) of 0.757. It also gave a relative viability (EMC-BAC-2; first compound 0.2 µM) of 0.708, a relative viability (EMC-BAC-2; first compound 0.6325 µM) of 0.774 and a relative viability (EMC-BAC-2; first compound 2 µM) of 0.784. The relative viability (EMC-BAC-2; first compound 6.325 µM) was 0.628, the relative viability (EMC-BAC-2; first compound 20 µM) was 0.196 and the relative viability (HCC-15; first compound 0.2 µM) was 0.801. The relative viability (HCC-15; first compound 0.6325 µM) was 0.808, the relative viability (HCC-15; first compound 2 µM) was 0.86 and the relative viability (HCC-15; first compound 6.325 µM) was 0.406. It also gave a relative viability (HCC-15; first compound 20 µM) of 0.12, a relative viability (HCC-44; first compound 0.2 µM) of 0.766 and a relative viability (HCC-44; first compound 0.6325 µM) of 0.74. The relative viability (HCC-44; first compound 2 µM) was 0.67, the relative viability (HCC-44; first compound 6.325 µM) was 0.391 and the relative viability (HCC-44; first compound 20 µM) was 0.152. The relative viability (LK-2; first compound 0.2 µM) was 0.234, the relative viability (LK-2; first compound 0.6325 µM) was 0.233 and the relative viability (LK-2; first compound 6.325 µM) was 0.227. For the same molecule, the relative viability (LK-2; first compound 20 µM) was 0.229, the relative viability (LU99A; first compound 0.2 µM) was 0.56 and the relative viability (LU99A; first compound 0.6325 µM) was 0.538. The relative viability (LU99A; first compound 2 µM) was 0.474, the relative viability (LU99A; first compound 6.325 µM) was 0.481 and the relative viability (LU99A; first compound 20 µM) was 0.29. It also gave a relative viability (NCI-H1563; first compound 0.2 µM) of 1, a relative viability (NCI-H1563; first compound 0.6325 µM) of 0.891 and a relative viability (NCI-H1563; first compound 2 µM) of 0.749. It also gave a relative viability (NCI-H1563; first compound 6.325 µM) of 0.784, a relative viability (NCI-H1563; first compound 20 µM) of 0.577 and a relative viability (NCI-H1651; first compound 0.2 µM) of 0.921. The relative viability (NCI-H1651; first compound 0.6325 µM) was 0.878, the relative viability (NCI-H1651; first compound 2 µM) was 0.827 and the relative viability (NCI-H1651; first compound 6.325 µM) was 0.832. It also gave a relative viability (NCI-H1651; first compound 20 µM) of 0.584, a relative viability (NCI-H2023; first compound 0.2 µM) of 0.551 and a relative viability (NCI-H2023; first compound 0.6325 µM) of 0.598. For the same molecule, the relative viability (NCI-H2023; first compound 2 µM) was 0.573, the relative viability (NCI-H2023; first compound 6.325 µM) was 0.406 and the relative viability (NCI-H2023; first compound 20 µM) was 0.111. For the same molecule, the relative viability (NCI-H322M; first compound 0.2 µM) was 0.831, the relative viability (NCI-H322M; first compound 0.6325 µM) was 1.02 and the relative viability (NCI-H322M; first compound 2 µM) was 0.762. The relative viability (NCI-H322M; first compound 6.325 µM) was 0.808, the relative viability (NCI-H322M; first compound 20 µM) was 0.71 and the relative viability (NCI-H358; first compound 0.2 µM) was 0.572. The relative viability (NCI-H358; first compound 0.6325 µM) was 0.459, the relative viability (NCI-H358; first compound 2 µM) was 0.545 and the relative viability (NCI-H358; first compound 6.325 µM) was 0.225. For the same molecule, the relative viability (NCI-H358; first compound 20 µM) was 0.295, the relative viability (NCI-H460; first compound 0.2 µM) was 0.853 and the relative viability (NCI-H460; first compound 0.6325 µM) was 0.994. For the same molecule, the relative viability (NCI-H460; first compound 2 µM) was 0.374, the relative viability (NCI-H460; first compound 6.325 µM) was 0.205 and the relative viability (NCI-H460; first compound 20 µM) was 0.031. It also gave a relative viability (NCI-H520; first compound 0.2 µM) of 0.688, a relative viability (NCI-H520; first compound 0.6325 µM) of 0.787 and a relative viability (NCI-H520; first compound 2 µM) of 0.862. For the same molecule, the relative viability (NCI-H520; first compound 6.325 µM) was 0.578, the relative viability (NCI-H520; first compound 20 µM) was 0.498 and the relative viability (NCI-H727; first compound 0.2 µM) was 0.836. It also gave a relative viability (NCI-H727; first compound 0.6325 µM) of 0.81, a relative viability (NCI-H727; first compound 2 µM) of 0.795 and a relative viability (NCI-H727; first compound 6.325 µM) of 0.534. It also gave a relative viability (NCI-H727; first compound 20 µM) of 0.349, a relative viability (NCI-H838; first compound 0.2 µM) of 0.818 and a relative viability (NCI-H838; first compound 0.6325 µM) of 0.988. For the same molecule, the relative viability (NCI-H838; first compound 2 µM) was 0.554, the relative viability (NCI-H838; first compound 6.325 µM) was 0.688 and the relative viability (NCI-H838; first compound 20 µM) was 0.699. For the same molecule, the relative viability (PC-3 [JPC-3]; first compound 0.2 µM) was 0.989, the relative viability (PC-3 [JPC-3]; first compound 0.6325 µM) was 1 and the relative viability (PC-3 [JPC-3]; first compound 2 µM) was 1. For the same molecule, the relative viability (PC-3 [JPC-3]; first compound 6.325 µM) was 0.768 and the relative viability (PC-3 [JPC-3]; first compound 20 µM) was 0.451.
